# Like-named read-outs stand apart in the source and are kept apart here.
# Assays:
# Male Wistar rats [1] = assay: Plasma adipokines (leptin, resistin, adiponectin) after subchronic treatment; format: in vivo, rat; conditions: 25 nmol/kg b.w. sc once daily for 3 weeks, vs vehicle, n = 6/group
# Excerpt: (§1) After 1 week of acclimatization, animals were allocated into five groups (n = 6/each group). Rats received either vehicle, rat GIP(3-30)NH2, (25 nmol/kg b.w.), human (Pro3)GIP (25 nmol/kg b.w.), human GLP-2(3-33) (25 nmol/kg b.w.), or human GLP-2(11-33) (25 nmol/kg b.w.) sc daily at 6 PM for 3 weeks. […] To study bone resorption, blood was collected from the sublingual vein of rats at −2, −1, 0, 6, 10, 14, 17, 21 days of treatment. The day after the last injection, the rats were euthanized and blood was collected from the vena cava for further biochemical analysis. The liver was excised and samples were snap-frozen in liquid nitrogen and stored at −80°C until assayed.
# (§2) To obtain serum, blood samples were allowed to clot for 30 min and were then centrifuged (10 min at 3,000 × g) and stored at −20°C until analysis. To obtain plasma, blood was collected into chilled tubes containing in final concentrations EDTA 3.9 mmol/l and valine-pyrolidide 0.01 mmol/l (a DPP-4 inhibitor, a gift from Novo Nordisk A/S, Bagsvaerd, Denmark). The samples were centrifuged (10 min at 3,000 × g, 4°C) and plasma was kept at −80°C until analysis.
# (§3) Bone resorption was assessed by measurements of degradation product from C-terminal cross linked telopeptides of type 1 collagen (CTX, RatLaps; IDS Immunodiagnostic Systems GmbH, Frankfurt am Main, Germany). CTX values were expressed as percent of the mean of the baseline values (days−2,−1, 0) of the individual animal. The intra- and interassay coefficient of variation (CV's) of the assay is in the range 6–10 and 10–15%, respectively. Resistin was measured using rat resistin enzyme immunoassay kit (Bertinpharma, Montigny le Bretonneux, France). The intra-assay CV is <5%, the inter-assay <10%. Leptin was measured using rat leptin enzyme immunoassay kit (Mediagnost, Reutlingen, Germany). The intra- and inter-assay CV are <5%. Adiponectin was measured using rat adiponectin ELISA kit (Millipore, St. Charles, Missouri, USA). The intra- and inter-assay CV are <2 and <9%, respectively. LPL was measured using lipoprotein lipase ELISA kit (Cell Biolabs, San Diego, CA, USA). The intra- and inter-assay CV are <4 and <8%, respectively. All samples were analyzed in duplicates in the same assay to prevent inter assay variation.
# Male Wistar rats [2] = assay: Plasma lipoprotein lipase (LPL) ELISA after subchronic treatment; format: in vivo, rat; conditions: 25 nmol/kg b.w. sc once daily for 3 weeks, vs vehicle, n = 6/group
# Excerpt: as §1, with “assayed. […]” for “assayed.”
# Bone resorption was assessed by measurements of degradation product from C-terminal cross linked telopeptides of type 1 collagen (CTX, RatLaps; IDS Immunodiagnostic Systems GmbH, Frankfurt am Main, Germany). CTX values were expressed as percent of the mean of the baseline values (days−2,−1, 0) of the individual animal. […] Resistin was measured using rat resistin enzyme immunoassay kit (Bertinpharma, Montigny le Bretonneux, France). […] Leptin was measured using rat leptin enzyme immunoassay kit (Mediagnost, Reutlingen, Germany). […] Adiponectin was measured using rat adiponectin ELISA kit (Millipore, St. Charles, Missouri, USA). […] LPL was measured using lipoprotein lipase ELISA kit (Cell Biolabs, San Diego, CA, USA). […]
# Male Wistar rats [3] = assay: Plasma and intrahepatic triglycerides after subchronic treatment; format: in vivo, rat; conditions: 25 nmol/kg b.w. sc once daily for 3 weeks, vs vehicle, n = 6/group; for Intrahepatic triglyceride content: liver lipid extract; for Plasma triglyceride levels: terminal blood
# Excerpt: as §1, §2
# Total liver lipids were extracted as previously described ([31]). The extracts were evaporated under vacuum in a rotary evaporator and re-suspended in 1 ml of isopropanol for quantification of triglycerides. Plasma and intrahepatic triglycerides were assessed using triglyceride determination kit (Sigma-Aldrich, Saint Louis, USA). All samples were analyzed in duplicates in the same assay to prevent inter assay variation.
# Male Wistar rats [4] = assay: Subchronic treatment in rats: food intake, body weight, body composition (EchoMRI); format: in vivo, rat; conditions: vs vehicle, n = 6/group; for Food intake: measured twice a week, cage means; for Body weight: monitored weekly
# Protocol: All experiments were in accordance with internationally accepted principles for the care and use of laboratory animals and in compliance with an animal experiment license (2013/15–2934-00833) issued (to JH) by the Danish Committee for Animal Research. Male Wistar rats (Taconic, Denmark) weighing ~200 g at the time of arrival were housed two in each cage at the Panum Institute, Copenhagen, Denmark. They were kept in temperature- (21°C) and humidity-controlled (55%) rooms with light/dark cycles of 12 h with free access to standard rat chow and water.
# as §1
# Food intake was measured twice a week during the study period at 10 AM by subtracting the leftover weights from the initial weights and calculated as cage means (g/rat). Body weight was monitored weekly at 10 AM. Measures of body lean and fat mass were determined in live, conscious animals using quantitative magnetic resonance spectroscopy (EchoMRI-700TM; Echo MRI).
# Male Wistar rats [5] = assay: Bone resorption: serum CTX (RatLaps) during subchronic treatment; format: in vivo, rat; conditions: 25 nmol/kg b.w. sc once daily for 3 weeks, days 0-21, percent of individual baseline, vs vehicle, n = 6/group
# Excerpt: as §1, §2, §3
# [6] = Pharmacokinetic study of GIP(3-30)NH2, plasma radioimmunoassay; format: in vivo, rat
# Protocol: Samples were taken at 0, 5, 10, 20, 30, and 45 min post-injection of GIP(3-30)NH2. Blood was immediately aliquoted into tubes containing final concentrations of EDTA 3.9 mmol/l. Samples were centrifuged (3,000 × g for 10 min at 4°C) and the plasma stored at −80°C until analysis. GIP(3-30)NH2 concentrations were measured in plasma with an in-house-developed radioimmunoassay ([50]) using a polyclonal antibody (code no. 95236) raised in rabbits against porcine GIP(1-30)NH2. As standard we used rat GIP(3-30)NH2 and the tracer was ^125I-labeled human GIP(3-30NH2).
# rat GIPR = conditions: acts as a partial agonist at the rat GIPR, elsewhere ref 22, 25; cited from earlier work
# [7] = cited from earlier work
# Excerpt: Glucose-dependent insulinotropic peptide (GIP) and glucagon-like peptide-2 (GLP-2) are peptide hormones released from K and L cells of the gastrointestinal tract, respectively ([1], [2]). Both exert their functions through activation of specific G protein-coupled receptors ([3], [4]). The GIP receptor (GIPR) is expressed on different cell type including pancreatic cells, adipocytes ([5]), osteoblasts ([6]), and osteoclasts ([7]). The GLP-2 receptor (GLP-2R) is widely expressed in gastrointestinal tract and central nervous system ([8]–[10]) but fewer are found in the liver, vagal afferents, and ...
# [8] = 25 nmol/kg b.w. sc once daily for 3 weeks
Compound,Plasma lipoprotein lipase (LPL) levels (Male Wistar rats [2]),Intrahepatic triglyceride content (Male Wistar rats [3]),Plasma triglyceride levels (Male Wistar rats [3]),Food intake (Male Wistar rats [4]; [8]),Serum CTX levels (bone resorption) (Male Wistar rats [5]),Body weight (Male Wistar rats [4]; [8]),further results
CC[C@H](C)[C@H](NC(=O)[C@H](CO)NC(=O)[C@H](Cc1ccc(O)cc1)NC(=O)[C@H](CC(=O)O)NC(=O)[C@H](CO)NC(=O)[C@@H](NC(=O)[C@H](Cc1ccccc1)NC(=O)[C@@H](NC(=O)CNC(=O)[C@@H](N)CCC(=O)O)[C@@H](C)O)[C@@H](C)CC)C(=O)N[C@@H](C)C(=O)N[C@@H](CCSC)C(=O)N[C@@H](CC(=O)O)C(=O)N[C@@H](CCCCN)C(=O)N[C@H](C(=O)N[C@@H](CCCNC(=N)N)C(=O)N[C@@H](CCC(N)=O)C(=O)N[C@@H](CCC(N)=O)C(=O)N[C@@H](CC(=O)O)C(=O)N[C@@H](Cc1ccccc1)C(=O)N[C@H](C(=O)N[C@@H](CC(N)=O)C(=O)N[C@@H](Cc1c[nH]c2ccccc12)C(=O)N[C@@H](CC(C)C)C(=O)N[C@@H](CC(C)C)C(=O)N[C@@H](C)C(=O)N[C@@H](CCC(N)=O)C(=O)N[C@@H](CCCCN)C(N)=O)C(C)C)[C@@H](C)CC [GIP(3-30)NH2],significantly enhanced,failed to change,increased,no measurable effect,did not affect,,"Plasma adiponectin (Male Wistar rats [1]; ELISA): no significant effect; Plasma leptin (Male Wistar rats [1]; enzyme immunoassay): increased; Plasma resistin (Male Wistar rats [1]; enzyme immunoassay): no significant effect; Lean mass (Male Wistar rats [4]; 25 nmol/kg b.w. sc once daily for 3 weeks, NMR spectroscopy (EchoMRI)): no difference; Body fat mass (Male Wistar rats [4]; 25 nmol/kg b.w. sc once daily for 3 weeks, end of treatment, NMR spectroscopy (EchoMRI)): increased; Body weight gain, first 2 weeks of treatment (Male Wistar rats [4]; 25 nmol/kg b.w. sc once daily): did not show differences; Body weight gain, third week of treatment (Male Wistar rats [4]; 25 nmol/kg b.w. sc once daily, p < 0.05): significantly increased; Cmax ([6]; rat plasma, after administration, in-house radioimmunoassay, data not shown, read-out: Maximum plasma concentration): ~17 nM; Tmax ([6]; rat plasma, in-house radioimmunoassay, data not shown, read-out: Time of maximum plasma concentration after administration (converted)): 10 min; Half-life ([6]; rat plasma, in-house radioimmunoassay, read-out: Half-life after injection): ~20 min; Duration of exposure for the antagonist ([6]; rat, concluded from peak level and half-life): ≤ 2 h"
(Pro3)GIP,did not modify,did not modify,did not modify,not associated with changes,did not affect,not associated with changes,"Plasma levels of adipokines (Male Wistar rats [1]; leptin, resistin, adiponectin (Figure 2)): did not modify; Ki (rat GIPR): 19 nM; Body composition (total fat and lean mass) (Male Wistar rats [4]; 25 nmol/kg b.w. sc once daily for 3 weeks, NMR (EchoMRI)): not associated with changes"
"GLP-2(3-33): Synthetic human GLP-2(3-33), GLP-2R antagonist, from Caslo laboratory (DGSFSDEMNTILDNLAARDFINWLIQTKITD; Glucagon-like peptide 2; UniProt P01275 148-178, looked up, fragment)",,,,did not modify,did not change,did not modify,
"GLP-2(11-33): Synthetic human GLP-2(11-33), GLP-2R antagonist, from Caslo laboratory (NTILDNLAARDFINWLIQTKITD; Glucagon-like peptide 2; UniProt P01275 156-178, looked up, fragment)",,,,did not modify,did not change,did not modify,
Glucose-dependent insulinotropic peptide [GIP],,,,,,,"Half-life ([7]; humans, DPP-4 mediated degradation): about 7 min"
glucagon-like peptide-2 [GLP-2],,,,,,,"Half-life ([7]; human, in vivo): about 7 min"

# From publication PMC6691063, “Increased Body Weight and Fat Mass After Subchronic GIP Receptor Antagonist, but Not GLP-2 Receptor Antagonist, Administration in Rats” (Frontiers in Endocrinology, 2019)
